Data from ChEMBL document CHEMBL3046287, “Azoxystrobin resistance of French Mycosphaerella graminicola strains assessed by four in vitro bioassays and by screening of G143A substitution” (Crop Prot, 2010).
In brackets after ≈: the same amount, converted by molar mass.

Assays:
Assay type in all cases: functional, organism-based
[1] = system: Zymoseptoria tritici; test: Antifungal activity against azoxystrobin-sensitive Zymoseptoria tritici IPO323 carrying cytochrome-b G143 allele assessed as fungal growth inhibition after 6 days at 20 degC by microplate without alamar blue assay; settings: IPO323, 144 h
[2] = system: Zymoseptoria tritici; test: Antifungal activity against azoxystrobin-sensitive Zymoseptoria tritici T0211 carrying cytochrome-b G143 allele assessed as fungal growth inhibition after 6 days at 20 degC by microplate without alamar blue assay; settings: T0211, 144 h
[3] = system: Zymoseptoria tritici; test: Antifungal activity against azoxystrobin-sensitive Zymoseptoria tritici T0365 carrying cytochrome-b G143 allele assessed as inhibition of spore germination after 2 days at 18 degC by spotting on PDA medium assay; settings: T0365, 48 h
[4] = system: Zymoseptoria tritici; test: Antifungal activity against azoxystrobin-sensitive Zymoseptoria tritici T0403 carrying cytochrome-b G143 allele assessed as inhibition of spore germination after 2 days at 18 degC by spotting on PDA medium assay; settings: T0403, 48 h
[5] = system: Zymoseptoria tritici; test: Antifungal activity against azoxystrobin-resistant Zymoseptoria tritici T0242 carrying cytochrome-b A143 allele assessed as inhibition of spore germination after 2 days at 18 degC by spotting on PDA medium assay; settings: T0242, 48 h
[6] = system: Zymoseptoria tritici; test: Antifungal activity against azoxystrobin-resistant Zymoseptoria tritici T0485 carrying cytochrome-b A143 allele assessed as inhibition of spore germination after 2 days at 18 degC by spotting on PDA medium assay; settings: T0485, 48 h
[7] = system: Zymoseptoria tritici; test: Antifungal activity against azoxystrobin-resistant Zymoseptoria tritici T055 carrying cytochrome-b A143 allele assessed as inhibition of spore germination after 2 days at 18 degC by spotting on PDA medium assay; settings: T055, 48 h
[8] = system: Zymoseptoria tritici; test: Antifungal activity against azoxystrobin-resistant Zymoseptoria tritici T0251 carrying cytochrome-b A143 allele assessed as inhibition of spore germination after 2 days at 18 degC by spotting on PDA medium assay; settings: T0251, 48 h
[9] = system: Zymoseptoria tritici; test: Antifungal activity against azoxystrobin-sensitive Zymoseptoria tritici T0403 carrying cytochrome-b G143 allele assessed as fungal colony perpendicular diameter changes after 10 days at 18 degC by spotting on PDA medium assay; settings: T0403, 240 h
[10] = system: Zymoseptoria tritici; test: Antifungal activity against azoxystrobin-resistant Zymoseptoria tritici T0254 carrying cytochrome-b A143 allele assessed as fungal colony perpendicular diameter changes after 10 days at 18 degC by spotting on PDA medium assay; settings: T0254, 240 h
[11] = system: Zymoseptoria tritici; test: Antifungal activity against azoxystrobin-resistant Zymoseptoria tritici T0451 carrying cytochrome-b A143 allele assessed as fungal colony perpendicular diameter changes after 10 days at 18 degC by spotting on PDA medium assay; settings: T0451, 240 h
[12] = system: Zymoseptoria tritici; test: Antifungal activity against azoxystrobin-sensitive Zymoseptoria tritici T0278 carrying cytochrome-b G143 allele assessed as fungal colony perpendicular diameter changes after 10 days at 18 degC by spotting on PDA medium assay; settings: T0278, 240 h
[13] = system: Zymoseptoria tritici; test: Antifungal activity against azoxystrobin-sensitive Zymoseptoria tritici T0384 carrying cytochrome-b G143 allele assessed as fungal colony perpendicular diameter changes after 10 days at 18 degC by spotting on PDA medium assay; settings: T0384, 240 h
[14] = system: Zymoseptoria tritici; test: Antifungal activity against azoxystrobin-resistant Zymoseptoria tritici T055 carrying cytochrome-b A143 allele assessed as fungal colony perpendicular diameter changes after 10 days at 18 degC by spotting on PDA medium assay; settings: T055, 240 h
[15] = system: Zymoseptoria tritici; test: Antifungal activity against azoxystrobin-resistant Zymoseptoria tritici T0414 carrying cytochrome-b A143 allele assessed as fungal colony perpendicular diameter changes after 10 days at 18 degC by spotting on PDA medium assay; settings: T0414, 240 h
[16] = system: Zymoseptoria tritici; test: Antifungal activity against azoxystrobin-sensitive Zymoseptoria tritici IPO323 carrying cytochrome-b G143 allele assessed as inhibition of spore germination after 2 days at 18 degC by spotting on PDA medium assay; settings: IPO323, 48 h
[17] = system: Zymoseptoria tritici; test: Antifungal activity against azoxystrobin-sensitive Zymoseptoria tritici T0468 carrying cytochrome-b G143 allele assessed as inhibition of spore germination after 2 days at 18 degC by spotting on PDA medium assay; settings: T0468, 48 h
[18] = system: Zymoseptoria tritici; test: Antifungal activity against azoxystrobin-sensitive Zymoseptoria tritici T0210 carrying cytochrome-b G143 allele assessed as inhibition of spore germination after 2 days at 18 degC by spotting on PDA medium assay; settings: T0210, 48 h
[19] = system: Zymoseptoria tritici; test: Antifungal activity against azoxystrobin-sensitive Zymoseptoria tritici T0278 carrying cytochrome-b G143 allele assessed as inhibition of spore germination after 2 days at 18 degC by spotting on PDA medium assay; settings: T0278, 48 h
[20] = system: Zymoseptoria tritici; test: Antifungal activity against azoxystrobin-sensitive Zymoseptoria tritici T0278 carrying cytochrome-b G143 allele assessed as fungal growth inhibition after 6 days at 20 degC by microplate without alamar blue assay; settings: T0278, 144 h
[21] = system: Zymoseptoria tritici; test: Antifungal activity against azoxystrobin-sensitive Zymoseptoria tritici T0471 carrying cytochrome-b G143 allele assessed as fungal growth inhibition after 6 days at 20 degC by microplate without alamar blue assay; settings: T0471, 144 h
[22] = system: Zymoseptoria tritici; test: Antifungal activity against azoxystrobin-sensitive Zymoseptoria tritici T0148 carrying cytochrome-b G143 allele assessed as fungal growth inhibition after 6 days at 20 degC by microplate without alamar blue assay; settings: T0148, 144 h
[23] = system: Zymoseptoria tritici; test: Antifungal activity against azoxystrobin-resistant Zymoseptoria tritici T0254 carrying cytochrome-b A143 allele assessed as fungal growth inhibition after 6 days at 20 degC by microplate without alamar blue assay; settings: T0254, 144 h
[24] = system: Zymoseptoria tritici; test: Antifungal activity against azoxystrobin-resistant Zymoseptoria tritici T0242 carrying cytochrome-b A143 allele assessed as fungal growth inhibition after 6 days at 20 degC by microplate without alamar blue assay; settings: T0242, 144 h
[25] = system: Zymoseptoria tritici; test: Antifungal activity against azoxystrobin-resistant Zymoseptoria tritici T0290 carrying cytochrome-b A143 allele assessed as fungal growth inhibition after 6 days at 20 degC by microplate without alamar blue assay; settings: T0290, 144 h
[26] = system: Zymoseptoria tritici; test: Antifungal activity against azoxystrobin-resistant Zymoseptoria tritici T032 carrying cytochrome-b A143 allele assessed as fungal growth inhibition after 6 days at 20 degC by microplate without alamar blue assay; settings: T032, 144 h
[27] = system: Zymoseptoria tritici; test: Antifungal activity against azoxystrobin-sensitive Zymoseptoria tritici IPO323 carrying cytochrome-b G143 allele assessed as fungal colony perpendicular diameter changes after 10 days at 18 degC by spotting on PDA medium assay; settings: IPO323, 240 h
[28] = system: Zymoseptoria tritici; test: Antifungal activity against azoxystrobin-sensitive Zymoseptoria tritici T0214 carrying cytochrome-b G143 allele assessed as fungal colony perpendicular diameter changes after 10 days at 18 degC by spotting on PDA medium assay; settings: T0214, 240 h
[29] = system: Zymoseptoria tritici; test: Antifungal activity against azoxystrobin-sensitive Zymoseptoria tritici IPO94269 carrying cytochrome-b G143 allele assessed as fungal colony perpendicular diameter changes after 10 days at 18 degC by spotting on PDA medium assay; settings: IPO94269, 240 h
[30] = system: Zymoseptoria tritici; test: Antifungal activity against azoxystrobin-sensitive Zymoseptoria tritici T0403 carrying cytochrome-b G143 allele assessed as fungal growth inhibition after 6 days at 20 degC by microplate without alamar blue assay; settings: T0403, 144 h

Structure (SMILES): CO/C=C(/C(=O)OC)c1ccccc1Oc1cc(Oc2ccccc2C#N)ncn1 [AZOXYSTROBIN]
- IC50 [1]: 0.01 µg/mL (≈ 0.0248 µM)
- IC50 [2]: 0.02 µg/mL (≈ 0.0496 µM)
- IC50 [3]: 0.06 µg/mL (≈ 0.149 µM)
- IC50 [4]: < 0.01 µg/mL
- IC50 [5]: 18.4 µg/mL (≈ 45.7 µM)
- IC50 [6]: 14.6 µg/mL (≈ 36.3 µM)
- IC50 [7]: 15.6 µg/mL (≈ 38.6 µM)
- IC50 [8]: 34.1 µg/mL (≈ 84.7 µM)
- IC50 [9]: 0.12 µg/mL (≈ 0.297 µM)
- IC50 [10]: 10.8 µg/mL (≈ 26.8 µM)
- IC50 [11]: 14.7 µg/mL (≈ 36.5 µM)
- IC50 [12]: 0.17 µg/mL (≈ 0.421 µM)
- IC50 [13]: 0.33 µg/mL (≈ 0.818 µM)
- IC50 [14]: 10.2 µg/mL (≈ 25.2 µM)
- IC50 [15]: 11.8 µg/mL (≈ 29.3 µM)
- IC50 [16]: 0.07 µg/mL (≈ 0.174 µM)
- IC50 [17]: 0.25 µg/mL (≈ 0.62 µM)
- IC50 [18]: 0.01 µg/mL (≈ 0.0248 µM)
- IC50 [19]: 0.94 µg/mL (≈ 2.33 µM)
- IC50 [20]: 0.04 µg/mL (≈ 0.0992 µM)
- IC50 [21]: 0.05 µg/mL (≈ 0.124 µM)
- IC50 [22]: 0.21 µg/mL (≈ 0.521 µM)
- IC50 [23]: 32.6 µg/mL (≈ 80.8 µM)
- IC50 [24]: > 100 µg/mL
- IC50 [25]: > 100 µg/mL
- IC50 [26]: > 100 µg/mL
- IC50 [27]: 0.03 µg/mL (≈ 0.0744 µM)
- IC50 [28]: 0.09 µg/mL (≈ 0.223 µM)
- IC50 [29]: 0.1 µg/mL (≈ 0.248 µM)
- IC50 [30]: 9.9 µg/mL (≈ 24.5 µM)
